This is an account of results in article PMC3419191, “Identification of Novel Piperazinylquinoxaline Derivatives as Potent Phosphoinositide 3-Kinase (PI3K) Inhibitors” (PLoS ONE, 2012).

For one series, the system named is KB. In words: MTT assay, antiproliferative activity against KB cells. It counts as cell-based. Particulars: Homo sapiens, 72 h, mean of at least two determinations. The text has this: (§1) All synthesized target compounds were firstly tested for their antiproliferative activity against five human cancer cell lines, PC3, A549, HCT116, HL60, and KB, using MTT assay.
(§2) Human prostate cancer PC3 cells, lung adenocarcinoma epithelial A549 cells, colon cancer HCT116 cells, promyelocytic leukemia HL60 cells and nasopharyngeal carcinoma KB cells were obtained from the cell bank of the Institute of Biochemistry and Cell Biology, Chinese Academy of Sciences (Shanghai, China). The inhibitory activity of target compounds against tested cancer cell lines was measured using the MTT assay. PC3, A549, HCT116, HL60, and KB cancer cell lines were cultured in RPMI-1640 medium (Invitrogen, Carlsbad, CA, USA) with heat-inactivated 10% fetal bovine serum, penicillin (100 units/mL) and streptomycin (100 µg/mL) and incubated in an atmosphere with 20% oxygen and 5% carbon dioxide at 37°C. All tested compounds were dissolved in DMSO at concentrations of 10.0 mg/mL and diluted to appropriate concentrations. Cells were plated in 96-well plates for 24 h and subsequently treated with different concentrations of all tested compounds for 72 h. Viable cells were determined using 3-(4,5-dimethylthiazol-2-yl)-2,5-diphenyltetrazolium bromide assay kit (MTT, Sigma) according to operation instructions provided by the manufacturer. The concentration of drug causing 50% inhibition in absorbance compared with control cells (IC50) was calculated using the software of dose-effect analysis with microcomputers.
On the technique in general: Formazan colour is commonly taken as a measure of viable cells.

In a further series the test system is PC3. In words: MTT assay, antiproliferative activity against PC3 cells. The format is cell-based. Particulars: Homo sapiens, PC-3, 72 h, mean of at least two determinations.
Source text: as §1, §2

A further series relates to HCT116. In words: MTT assay, antiproliferative activity against HCT116 cells. It counts as cell-based. Particulars: Homo sapiens, HCT-116, 72 h, mean of at least two determinations.
Source text: as §1, §2

For the next series, the target named is T1, recombinant human PI3Kα (Homo sapiens, UniProt P42336).
T1 construct: purchased Echelon Biosciences (Salt Lake City, UT, USA) E-2000
T1 sequence (P42336 whole entry): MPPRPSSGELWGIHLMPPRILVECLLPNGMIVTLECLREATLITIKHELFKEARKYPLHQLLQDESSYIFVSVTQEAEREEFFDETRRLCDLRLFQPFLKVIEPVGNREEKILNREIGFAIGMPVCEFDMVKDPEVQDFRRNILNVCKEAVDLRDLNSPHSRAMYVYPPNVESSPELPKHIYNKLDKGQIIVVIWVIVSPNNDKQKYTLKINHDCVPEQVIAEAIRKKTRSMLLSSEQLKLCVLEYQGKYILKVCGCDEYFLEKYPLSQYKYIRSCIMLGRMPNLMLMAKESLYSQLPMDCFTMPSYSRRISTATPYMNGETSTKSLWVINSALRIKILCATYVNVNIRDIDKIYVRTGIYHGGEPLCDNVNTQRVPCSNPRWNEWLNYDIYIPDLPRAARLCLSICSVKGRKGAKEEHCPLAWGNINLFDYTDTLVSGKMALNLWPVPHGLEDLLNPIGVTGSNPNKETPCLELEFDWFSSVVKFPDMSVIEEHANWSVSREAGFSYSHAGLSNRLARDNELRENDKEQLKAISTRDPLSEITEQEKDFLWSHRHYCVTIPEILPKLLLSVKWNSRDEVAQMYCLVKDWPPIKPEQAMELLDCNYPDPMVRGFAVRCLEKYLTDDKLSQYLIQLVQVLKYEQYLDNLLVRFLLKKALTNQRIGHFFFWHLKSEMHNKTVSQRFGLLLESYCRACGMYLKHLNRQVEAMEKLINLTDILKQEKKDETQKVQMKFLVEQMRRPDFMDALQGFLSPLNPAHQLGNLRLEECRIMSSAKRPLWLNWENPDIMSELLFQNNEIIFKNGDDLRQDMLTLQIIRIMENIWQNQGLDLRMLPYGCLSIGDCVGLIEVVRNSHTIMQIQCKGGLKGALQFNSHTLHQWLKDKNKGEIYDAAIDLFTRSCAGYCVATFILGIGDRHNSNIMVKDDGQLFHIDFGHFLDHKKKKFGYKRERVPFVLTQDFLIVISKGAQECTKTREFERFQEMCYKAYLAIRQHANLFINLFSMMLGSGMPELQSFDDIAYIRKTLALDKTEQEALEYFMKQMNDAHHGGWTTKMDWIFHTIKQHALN
T1 sequence (P27986 whole entry partner): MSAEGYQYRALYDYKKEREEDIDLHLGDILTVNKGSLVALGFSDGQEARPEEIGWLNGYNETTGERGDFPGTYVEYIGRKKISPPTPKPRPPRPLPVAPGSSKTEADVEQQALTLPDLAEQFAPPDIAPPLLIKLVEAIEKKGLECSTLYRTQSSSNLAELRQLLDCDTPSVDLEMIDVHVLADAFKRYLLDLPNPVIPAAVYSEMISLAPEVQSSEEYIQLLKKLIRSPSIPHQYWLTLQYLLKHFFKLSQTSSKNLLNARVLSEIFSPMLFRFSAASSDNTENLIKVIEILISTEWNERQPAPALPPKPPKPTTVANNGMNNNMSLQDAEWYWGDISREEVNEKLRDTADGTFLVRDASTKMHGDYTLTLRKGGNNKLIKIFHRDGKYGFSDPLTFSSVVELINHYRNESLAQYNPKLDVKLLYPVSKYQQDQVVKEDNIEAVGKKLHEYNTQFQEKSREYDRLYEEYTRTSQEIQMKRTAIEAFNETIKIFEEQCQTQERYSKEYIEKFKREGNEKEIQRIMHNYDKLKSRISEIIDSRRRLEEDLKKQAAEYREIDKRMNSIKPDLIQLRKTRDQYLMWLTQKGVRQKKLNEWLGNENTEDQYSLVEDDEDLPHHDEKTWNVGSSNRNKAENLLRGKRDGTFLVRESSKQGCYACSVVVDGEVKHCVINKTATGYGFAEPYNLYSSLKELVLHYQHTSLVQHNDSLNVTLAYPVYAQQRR
Nature of the series: Competitive fluorescence polarization (FP) assay, inhibition of PI3Kα. It counts as biochemical. Particulars: for Binding efficiency index (BEI): BEI = pIC50 (M)/MW (kDa), PI3Kα; for pIC50: FP assay, 50 µM ATP, mean of at least two determinations. As to the method:
Selected compounds were then tested for their enzymatic inhibitory activity against PI3Kα using a competitive fluorescence polarization (FP) assay to determine the molecular target of synthesized compounds [21].
The PI3Kα inhibitory test was determined using a competitive fluorescence polarization kinase activity assay. PI3K fluorescence polarization assay kit (catalog No. K-1100) and recombinant human PI3Kα (catalog No. E-2000) were purchased from Echelon Biosciences (Salt Lake City, UT, USA). PI3K reactions were performed in 5 mM HEPES, Ph 7, 2.5 mM MgCl2, 10 mM DTT and 50 µM ATP, using diC8-phosphatidylinositol-4, 5-bisphosphate (PIP2) as the substrate, and the final reaction volumes were 10 µL. For evaluation of the PI3Kα inhibitory activity of target compounds, 50 ng enzyme and 10 µM substate were used per 10 µL reaction volume with the concentrations of inhibitors ranging from 3.2 nM to 10 µM. After incubating for 3 h at room temperature, reactions were quenched by adding chelators. A mixture of phosphoinositide binding protein was added and mixed, followed by the addition of a fluorophore-labeled phosphoinositide tracer. Samples were then mixed in 384-well black Corning nonbinding plates (Corning, NY, USA) and incubated in a dark environment for 1 h to equilibrate. Finally, polarization values were measure using red fluorophores with appropriate filters to determine the extent of enzyme activity in the reaction.
(Fluorescence polarisation rises when a labelled molecule tumbles more slowly, as on binding a larger partner.)

The test system of a further series is HL60. In words: MTT assay, antiproliferative activity against HL60 cells. It counts as cell-based. To be noted: Homo sapiens, HL-60, 72 h, mean of at least two determinations.
Source text: as §1, §2

In a further series the test system is A549. Nature of the series: MTT assay, antiproliferative activity against A549 cells. The format is cell-based. To be noted: Homo sapiens, 72 h, mean of at least two determinations.
Source text: as §1, §2

Structures are written as SMILES. pIC50: −log10 of the molar value.

The pIC50 is the IC50 on a negative log10 scale, so that one unit is a factor of ten. For the molecule `O=S(=O)(c1ccccc1)c1nc2ccccc2nc1N1CCNCC1` [Compound 19, 2-(Piperazin-1-yl)-3-(phenylsulfonyl)quinoxaline], the pIC50 is 5.08 with KB; 6.05 in the series with PC3; 6.00 in the series with HCT116; 6.72 on recombinant human PI3Kα; 6.96 with HL60; 4.89 in the series on A549. At recombinant human PI3Kα, the “Binding efficiency index (BEI)” value is recorded as 19.0.
Take `CC1CN(c2nc3ccccc3nc2S(=O)(=O)c2ccccc2)CCN1` (stereo not shown) [Compound 24, 2-(3-Methylpiperazin-1-yl)-3-(phenylsulfonyl)quinoxaline]: the pIC50 with KB is 5.06; with PC3, 5.84; in the series with HCT116 it was 6.17; on recombinant human PI3Kα it was 7.23; in the series on HL60, 6.82; in the series on A549, 5.87. The “Binding efficiency index (BEI)” value at recombinant human PI3Kα was determined as 19.7.
Broadly, the melting point is the temperature, or range, at which the solid turns liquid. `O=C(c1ccccc1)N1CCN(c2nc3ccccc3nc2S(=O)(=O)c2ccc(F)cc2)CC1` [Compound 33, 2-(4-Benzoylpiperazin-1-yl)-3-(4-fluorophenylsulfonyl)quinoxaline] came in with a melting point of 200 to 202 °C. In the series on KB, this molecule had a pIC50 of 5.91. The molecule further showed a pIC50 in the series with PC3 of 5.75. For the same molecule, the negative-log IC50 (pIC50) in the series with HCT116 is 5.05. The same molecule showed a pIC50 in the series with HL60 of 5.16. The pIC50 with A549 is 5.94.
Regarding `Cc1ccc(S(=O)(=O)c2nc3ccccc3nc2N2CCN(C(=O)c3ccc(Cl)cc3)CC2)cc1` [Compound 35, 2-(4-(4-Chlorobenzoyl)piperazin-1-yl)-3-(4-methylphenylsulfonyl)quinoxaline], the melting point fell in the range of 188 to 190 °C. The same molecule had a pIC50 in the series on KB of 5.55. The molecule further showed a pIC50 with PC3 of 5.44. The pIC50 in the series on HCT116 is 5.01. In the series with HL60, this molecule gave a pIC50 of 5.22. The molecule also had a pIC50 in the series with A549 of 4.67.
`COc1ccc(S(=O)(=O)c2nc3ccccc3nc2N2CCN(C(=O)c3ccc(Cl)cc3)CC2)cc1` [Compound 36, 2-(4-(4-Chlorobenzoyl)piperazin-1-yl)-3-(4-methoxyphenylsulfonyl)quinoxaline]: the melting point was 179 °C. The same molecule gave a pIC50 in the series with KB of 5.22. Also, the pIC50 in the series with PC3 is 5.61. Moreover, in the series with HCT116, the pIC50 was 5.02. The pIC50 in the series on HL60 was 5.25. The pIC50 in the series on A549 was below 4.30.
`O=C(c1ccc(Cl)cc1)N1CCN(c2nc3ccccc3nc2S(=O)(=O)c2ccc(Br)cc2)CC1` [Compound 37, 2-(4-(4-Chlorobenzoyl)piperazin-1-yl)-3-(4-bromophenylsulfonyl)quinoxaline] displayed a melting point of 214 to 216 °C. The pIC50 in the series with KB is 5.29. In addition, the pIC50 in the series on PC3 is 5.54. Further, in the series on HCT116, the pIC50 was 4.98. Besides, in the series with HL60, the pIC50 is 5.21. Further, the pIC50 with A549 was below 4.30.
With `O=C(c1ccc(Cl)cc1)N1CCN(c2nc3ccccc3nc2S(=O)(=O)c2ccc(F)cc2)CC1` [Compound 38, 2-(4-(4-Chlorobenzoyl)piperazin-1-yl)-3-(4-fluorophenylsulfonyl)quinoxaline], the melting point fell in the range of 214 to 215 °C. The molecule further had a pIC50 in the series on KB of 5.73. Moreover, the pIC50 with PC3 was 5.39. The molecule further showed a pIC50 in the series on HCT116 of 5.06. The same molecule showed a pIC50 with HL60 of 5.35. For the same molecule, in the series with A549, the pIC50 is 4.75.
For the molecule `CS(=O)(=O)N1CCN(c2nc3ccccc3nc2S(=O)(=O)c2ccccc2)CC1` [Compound 39, 2-(4-(Methylsulfonyl)piperazin-1-yl)-3-(phenylsulfonyl)quinoxaline], the melting point lay within 182 to 185 °C. The negative-log IC50 (pIC50) with PC3 was 5.97. In the series with HCT116, the pIC50 was 5.92. For the same molecule, on recombinant human PI3Kα, the “Binding efficiency index (BEI)” value came out at 13.6 and the pIC50 is 5.87. Further, the pIC50 in the series on A549 is 5.63.
In the case of `Cc1ccc(S(=O)(=O)c2nc3ccccc3nc2N2CCN(S(C)(=O)=O)CC2)cc1` [Compound 40, 2-(4-(Methylsulfonyl)piperazin-1-yl)-3-(4-methylphenylsulfonyl)quinoxaline], the pIC50 in the series on PC3 was 5.27; with HCT116 it was 5.97; on recombinant human PI3Kα, 6.34; with A549 it was 5.71.
Molecule `CS(=O)(=O)N1CCN(c2nc3ccccc3nc2S(=O)(=O)c2ccc(Br)cc2)CC1` [Compound 42, 2-(4-(Methylsulfonyl)piperazin-1-yl)-3-(4-bromophenylsulfonyl)quinoxaline] came in with a melting point of 194 to 196 °C. In the series with PC3, the pIC50 was 5.71. The same molecule gave a pIC50 in the series with HCT116 of 6.39. Besides, at recombinant human PI3Kα, the “Binding efficiency index (BEI)” value came to 12.4 and the pIC50 was 6.36. The molecule further showed a pIC50 with A549 of 5.88.
`Cc1ccc(S(=O)(=O)c2nc3ccccc3nc2N2CCN(S(=O)(=O)c3ccc(C)cc3)CC2)cc1` [Compound 45, 2-(4-(4-Methylphenylsulfonyl)piperazin-1-yl)-3-(4-methylphenylsulfonyl)-quinoxaline] returned a melting point of 174 to 175 °C. The same molecule gave a pIC50 in the series with KB of 5.57. The molecule also showed a pIC50 with PC3 of 5.46. For the same molecule, the pIC50 with HCT116 is 5.72. Also, the pIC50 in the series on HL60 was 5.03. The molecule also gave a pIC50 with A549 of 4.31.
On to `COc1ccc(S(=O)(=O)c2nc3ccccc3nc2N2CCN(S(=O)(=O)c3ccc(C)cc3)CC2)cc1` [Compound 46, 2-(4-(4-Methylphenylsulfonyl)piperazin-1-yl)-3-(4-methoxyphenylsulfonyl)-quinoxaline], for which the melting point lay within 172 to 175 °C. Moreover, the pIC50 in the series with KB is 5.63. In the series with PC3, this molecule had a pIC50 of 5.21. In addition, in the series with HCT116, the pIC50 was 4.85. In the series on HL60, this molecule had a pIC50 of 4.83. Besides, the pIC50 with A549 was below 4.30.
Molecule `Cc1ccc(S(=O)(=O)N2CCN(c3nc4ccccc4nc3S(=O)(=O)c3ccc(Br)cc3)CC2)cc1` [Compound 47, 2-(4-(4-Methylphenylsulfonyl)piperazin-1-yl)-3-(4-bromophenylsulfonyl)-quinoxaline] showed a melting point of 214 to 216 °C. The molecule also showed a pIC50 in the series with KB of 5.56. The pIC50 in the series with PC3 was 5.31. The same molecule gave a pIC50 with HCT116 of 5.29. In the series on HL60, this molecule had a pIC50 of 4.99. In the series on A549, this molecule showed a pIC50 of 4.71.
`Cc1ccc(S(=O)(=O)N2CCN(c3nc4ccccc4nc3S(=O)(=O)c3ccc(F)cc3)CC2)cc1` [Compound 48, 2-(4-(4-Methylphenylsulfonyl)piperazin-1-yl)-3-(4-fluorophenylsulfonyl)-quinoxaline] showed a melting point of 172 to 174 °C. The molecule further showed a pIC50 with KB of 5.29. Besides, the pIC50 with PC3 is 5.47. Also, the pIC50 in the series on HCT116 is 5.42. In the series on HL60, this molecule had a pIC50 of 5.02. Besides, in the series on A549, the pIC50 was 4.32.
On to `O=S(=O)(c1ccccc1)c1nc2ccccc2nc1N1CCN(CCCN2CCOCC2)CC1` [Compound 49, 2-(4-(3-Morpholinopropyl)piperazin-1-yl)-3-(phenylsulfonyl)quinoxaline], for which the pIC50 with PC3 was 5.29; in the series on HCT116 it was 6.19; on recombinant human PI3Kα, 6.74; with A549 it was 6.14. Besides, on recombinant human PI3Kα, the “Binding efficiency index (BEI)” value was found to be 14.0.
In the case of `O=S(=O)(c1ccc(Br)cc1)c1nc2ccccc2nc1N1CCN(CCCN2CCOCC2)CC1` [Compound 52, 2-(4-(3-Morpholinopropyl)piperazin-1-yl)-3-(4-bromophenylsulfonyl)quinoxaline], the pIC50 is 5.92 in the series with PC3, 6.66 in the series with HCT116, 6.70 on recombinant human PI3Kα and 6.47 with A549. For the same molecule, the “Binding efficiency index (BEI)” value at recombinant human PI3Kα was 11.9.
Regarding `O=S(=O)(c1ccccc1)c1nc2ccccc2nc1N1CCOCC1` [WR1, reference compound], the pIC50 is 4.72 in the series on PC3, 5.27 in the series on HCT116, 5.35 with HL60 and 4.90 with A549. On recombinant human PI3Kα, the “Binding efficiency index (BEI)” value is recorded as 17.9.
Regarding `O=S(=O)(c1ccc(Br)cc1)c1nc2ccccc2nc1N1CCC(O)CC1` [WR23, reference compound], the “Binding efficiency index (BEI)” value on recombinant human PI3Kα turned out to be 17.0.
